Data from patent publication US10174033B2, “N6-substituted adenosine derivatives and N6-substituted adenine derivatives and uses thereof” (INSTITUTE OF MATERIA MEDICA, CHINESE ACADEMY OF MEDICAL …, priority 2009, dated 2019).

Key:
mice = experiment: Sub-threshold hypnotic dose sodium pentobarbital induced sleeping test; type: in vivo; conditions: intraperitoneal, 30 min before sub-threshold sodium pentobarbital (22 mg/kg ip)
Description: N^6-substituted adenosine derivatives and/or N^6-substituted adenine derivatives potentiated sodium pentobarbital-induced sleep in mice
Name of Experiment: Sub-threshold hypnotic dose sodium pentobarbital induced sleeping test
Method of Experiment: Mice (n=7-10) were pretreated with test compound or vehicle, after 30 min, a maximal sub-threshold hypnotic dose of sodium pentobarbital (22 mg/kg) was given intraperitoneally (ip). (On some condition, the sub-threshold dosage of sodium pentobarbital should be optimized to the maximum dose, at which the rate of sleep onset of vehicle group is less than 10%). […] Following sodium pentobarbital injection, each mouse was observed 15 min for onset of sleep. The percentage of sleep onset was calculated as: (number of animals falling asleep/total number of animals)×100%.

male ICR-mice = experiment: Potentiation of sodium pentobarbital sleeping time test; type: in vivo
[1] = bioassay-guided fractionation, sedative and hypnotic effects; conditions: compound isolated from Gastrodia elata and Gymnadenia conopsea, result in words
PC12 cell = conditions: result in words; cited from earlier work
adenosine A2A receptor = adenosine A2A receptor (Homo sapiens, UniProt P29274); conditions: result in words; cited from earlier work
Sequence of adenosine A2A receptor (P29274 whole entry): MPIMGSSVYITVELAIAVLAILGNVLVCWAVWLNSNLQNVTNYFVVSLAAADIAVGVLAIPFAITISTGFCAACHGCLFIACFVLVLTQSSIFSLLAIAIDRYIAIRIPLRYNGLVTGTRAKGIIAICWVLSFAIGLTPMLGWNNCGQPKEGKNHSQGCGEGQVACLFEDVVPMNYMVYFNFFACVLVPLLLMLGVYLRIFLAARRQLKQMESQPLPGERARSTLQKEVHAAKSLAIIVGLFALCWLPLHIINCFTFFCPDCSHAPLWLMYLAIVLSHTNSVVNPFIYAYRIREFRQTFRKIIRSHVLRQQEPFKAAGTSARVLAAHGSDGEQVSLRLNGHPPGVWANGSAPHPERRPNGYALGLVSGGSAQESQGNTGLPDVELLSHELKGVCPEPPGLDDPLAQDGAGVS

[2] = intraperitoneal, 5 mg/kg, 38 mg/kg sodium pentobarbital 30 min later
[3] = intraperitoneal, 1 mg/kg, 38 mg/kg sodium pentobarbital 30 min later
[4] = oral, 5 mg/kg, 38 mg/kg sodium pentobarbital 60 min later

Row | SMILES | Sleep rate (%) (mice; 5 mg/kg) | Sleep prolonging rate (%) (male ICR-mice; [2]) | Sleep rate (%) (mice; 1 mg/kg) | Sleep prolonging rate (%) (male ICR-mice; [4]) | other results
1 | OC[C@H]1O[C@@H](n2cnc3c(NCc4ccc(F)cc4)ncnc32)[C@H](O)[C@@H]1O [Example 11, N^6-(p-fluorobenzyl)-adenosine] | 71 | 73 |  |  | 
2 | COc1cc(CCNc2ncnc3c2ncn3[C@@H]2O[C@H](CO)[C@@H](O)[C@H]2O)ccc1O [Example 39, N^6-[(3-methoxy-4-hydroxyphenyl)-ethyl]-adenosine] |  |  | 88 |  | Sleep prolonging rate (%) (male ICR-mice; [3]): 13%
3 | O=[N+]([O-])c1ccc(CNc2ncnc3c2ncn3[C@@H]2O[C@H](CO)[C@@H](O)[C@H]2O)cc1 [Example 8, N^6-(p-nitrobenzyl)-adenosine] |  |  | 63 | 29 | Sleep prolonging rate (%) (male ICR-mice; [3]): 16%
4 | OC[C@H]1O[C@@H](n2cnc3c(NCc4ccc(C(F)(F)F)cc4)ncnc32)[C@H](O)[C@@H]1O [Example 13, N^6-(p-trifluoromethylbenzyl)-adenosine] | 57 | 23 |  |  | 
5 | OC[C@H]1O[C@@H](n2cnc3c(NCc4ccccc4O)ncnc32)[C@H](O)[C@@H]1O [Example 3, N^6-(o-hydroxybenzyl)-adenosine] |  |  | 88 | 92 | 
6 | OC[C@H]1O[C@@H](n2cnc3c(NCc4ccc(OC(F)(F)F)cc4)ncnc32)[C@H](O)[C@@H]1O [Example 12, N^6-(p-trifluoromethoxybenzyl)-adenosine] | 43 | 44 |  |  | 
7 | O=C(O)[C@@H](CO)Nc1ncnc2c1ncn2[C@@H]1O[C@H](CO)C(O)C1O (stereo partly shown) [Example 125, N-(6-adenosine)-(D)-serine] |  |  |  |  | Sleep rate (%) (mice; 5 mg/kg, listed as N-(6-adenosine)-(D)-serine): 14%; Sleep prolonging rate (%) (male ICR-mice; intraperitoneal, 5 mg/kg, 38 mg/kg sodium pentobarbital 30 min later, listed as N-(6-adenosine)-(D)-serine): 0%
8 | OC[C@H]1O[C@@H](n2cnc3c(NCCc4c[nH]c5ccccc45)ncnc32)[C@H](O)[C@@H]1O [Example 44, N^6-[(1H-Indole-3-yl)-ethyl]-adenosine] | 86 | 147 |  | 78 | 
9 | O=C(O)[C@@H](CO)Nc1ncnc2c1ncn2[C@@H]1O[C@H](CO)C(O)C1O (stereo partly shown) [Example 124, N-(6-adenosine)-(L)-serine] |  |  |  |  | Sleep rate (%) (mice; 5 mg/kg, listed as N-(6-adenosine)-(L)-serine): 29%; Sleep prolonging rate (%) (male ICR-mice; intraperitoneal, 5 mg/kg, 38 mg/kg sodium pentobarbital 30 min later, listed as N-(6-adenosine)-(L)-serine): 15%
10 | OC[C@H]1O[C@@H](n2cnc3c(NCc4ccc(O)cc4)ncnc32)[C@H](O)[C@@H]1O [Example 2, N^6-(p-hydroxybenzyl)-adenosine] |  |  | 63 |  | Sleep prolonging rate (%) (male ICR-mice; oral, 1 mg/kg, 38 mg/kg sodium pentobarbital 60 min later): 90%; sedative and hypnotic effects [1]: significant sedative and hypnotic effects; preventing PC12 cell apoptosis (PC12 cell): effective in preventing PC12 cell apoptosis; binding to adenosine A2A receptor (adenosine A2A receptor): binding to adenosine A2A receptor
11 | Nc1cccc(CNc2ncnc3c2ncn3[C@@H]2O[C@H](CO)[C@@H](O)[C@H]2O)c1 [Example 7, N^6-(m-aminobenzyl)-adenosine] |  |  | 100 | 50 | Sleep prolonging rate (%) (male ICR-mice; [3]): 101%
